This note sets out measurements from patent US20240308968A1, “FUNGICIDAL SUBSTITUTED HETEROCYCLES” (FMC Corporation, priority 2021, published 2024).

One data set has as its system Alternaria solani. Briefly: Test F: preventive spray on tomato seedlings, tomato early blight disease rating. The class given is in vivo. The settings on record: 50 ppm, 100 = 100% disease control, 0 = no control; for pest or weed control at 50 ppm: Alternaria solani, 120 h. The method, boiled down: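 Tomato seedlings were sprayed to run-off with compound suspensions in ppm (acetone/water with PEG400 surfactant) and inoculated with Alternaria solani spores the next day. Plants were held 48 h saturated at 27 °C, then 3 days at 20 °C. Disease was rated visually, with 100 as full control and 0 as none, relative to controls.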

The subject of a further data set is Botrytis cinerea. Description: Test E: preventive spray on tomato seedlings, tomato Botrytis disease rating. It counts as in vivo. The following applies: 50 ppm, 100 = 100% disease control, 0 = no control; for pest or weed control at 50 ppm: Botrytis cinerea, 120 h. An outline of the steps: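 Tomato seedlings sprayed to run-off with compound suspended in acetone/water with PEG400 surfactant, then inoculated next day with Botrytis cinerea spores. Held 48 h saturated at 20 °C, then 3 days at 24 °C; disease rated visually, 0 to 100% control relative to controls.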

Data set [1] concerns Blumeria graminis f. sp. Tritici. Briefly: Test C: preventive spray on wheat seedlings, wheat powdery mildew disease rating. It counts as in vivo. The settings on record: 50 ppm, 100 = 100% disease control, 0 = no control; for pest or weed control at 50 ppm: Blumeria graminis, 192 h. The method, boiled down: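 Wheat seedlings sprayed to run-off with test suspension (acetone 3% dissolution, then acetone/water 50/50 with 50–250 ppm PEG400), inoculated next day with Blumeria graminis spore dust. Held 8 days at 20° C in growth chamber, then visually rated (100 = full control, 0 = none, relative to controls).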

A further data set relates to Phakopsora pachyrhizi. Briefly: Test D: preventive spray on soybean seedlings, Asian soybean rust disease rating. The class given is in vivo. The following applies: 50 ppm, 100 = 100% disease control, 0 = no control; for pest or weed control at 50 ppm: Phakopsora pachyrhizi, 216 h. The method, boiled down:
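Compounds in acetone/water (50/50) with 50–250 ppm PEG400 sprayed to run-off on soybean seedlings; inoculated next day with P. pachyrhizi spores, held 24 h saturated at 22° C, then 8 days at 22° C before visual disease rating.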

The subject of data set [2] is Puccinia recondita f. sp. Tritici. Description: Test B: preventive spray on wheat seedlings, wheat leaf rust disease rating. It counts as in vivo. The settings on record: 50 ppm, 100 = 100% disease control, 0 = no control; for pest or weed control at 50 ppm: Puccinia recondita, 192 h. The method, boiled down:
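Compounds in acetone/water (50/50) with 50-250 ppm PEG400 sprayed to run-off on wheat seedlings; inoculated with P. recondita spores next day. Held 24 h saturated at 20° C., then 7 days in growth chamber at 20° C. before rating; 100 = full control, 0 = none versus controls.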

A further data set has as its system Zymoseptoria tritici. Briefly: Test A: preventive spray on wheat seedlings, wheat leaf blotch disease rating. It counts as in vivo. The settings on record: 50 ppm, 100 = 100% disease control, 0 = no control; for pest or weed control at 50 ppm: Zymoseptoria tritici, 456 h. The method, boiled down:
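Compounds in acetone/water (50/50) with 50–250 ppm PEG400, sprayed to run-off on wheat seedlings. Inoculated next day with Z. tritici spores, 48 h saturated atmosphere at 24 °C, then 17 days at 20 °C before disease rating.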

SMILES strings stand for the structures.

By pest or weed control is commonly meant how far the test organism was held down. Low values mean weak suppression, high ones strong suppression. By melting point is commonly meant the temperature, or range, at which the solid turns liquid. As for `COc1cc(OC)cc(-n2nc(C)c(=O)c(C)c2-c2ccc(F)cc2F)c1` [Compound 29, 6-(2,4-difluorophenyl)-1-(3,5-dimethoxyphenyl)-3,5-dimethyl-4(1H)-pyridazinone], the melting point fell in the range of 124 to 127 °C. The same molecule returned a pest or weed control at 50 ppm with Alternaria solani of 100%. The pest or weed control at 50 ppm in the data set on Botrytis cinerea is 98%. Moreover, the pest or weed control at 50 ppm in data set [1] stood at 100%. The pest or weed control at 50 ppm in the data set on Phakopsora pachyrhizi turned out to be 99%. In data set [2], the pest or weed control at 50 ppm worked out at 100%. The pest or weed control at 50 ppm in the data set on Zymoseptoria tritici stood at 100%.
In turn, `COc1cc(OC)c(Cl)c(-c2noc(=O)c(C)c2-c2ccc(F)cc2Cl)c1` [Compound 64, 3-(2-chloro-3,5-dimethoxyphenyl)-4-(2-chloro-4-fluorophenyl)-5-methyl-6H-1,2-oxazin-6-one] yielded a melting point of 161 to 164 °C. The molecule also gave a pest or weed control at 50 ppm in the data set with Alternaria solani of 99%. In the data set with Botrytis cinerea, this molecule yielded a pest or weed control at 50 ppm of 91%. In addition, in data set [1], the pest or weed control at 50 ppm was found to be 98%. The molecule further had a pest or weed control at 50 ppm in the data set with Phakopsora pachyrhizi of 99%. The pest or weed control at 50 ppm in data set [2] was found to be 100%. This molecule gave a pest or weed control at 50 ppm with Zymoseptoria tritici of 97%.
`COc1cc(OC)cc(-c2cc(C#N)c(=O)n(C)c2-c2c(F)cc(F)cc2F)c1` [Compound 67, 1,2-dihydro-5-(3,5-dimethoxyphenyl)-1-methyl-2-oxo-6-(2,4,6-trifluorophenyl)-3-pyridinecarbonitrile] yielded a melting point of 180 to 183 °C. The same molecule returned a pest or weed control at 50 ppm with Alternaria solani of 98%. Besides, the pest or weed control at 50 ppm in the data set with Botrytis cinerea was 98%. Further, the pest or weed control at 50 ppm in data set [1] turned out to be 84%. The pest or weed control at 50 ppm in the data set on Phakopsora pachyrhizi is 92%. The pest or weed control at 50 ppm in data set [2] came to 100%. This molecule displayed a pest or weed control at 50 ppm in the data set on Zymoseptoria tritici of 100%.
`COc1cc(OC)c(Cl)c(-c2cc(C#N)c(=O)n(C)c2-c2c(F)cc(F)cc2F)c1` [Compound 68, 5-(2-chloro-3,5-dimethoxyphenyl)-1,2-dihydro-1-methyl-2-oxo-6-(2,4,6-trifluorophenyl)-3-pyridinecarbonitrile]: the melting point was 159 to 162 °C. Also, the pest or weed control at 50 ppm with Alternaria solani stood at 99%. The same molecule registered a pest or weed control at 50 ppm with Botrytis cinerea of 93%. For the same molecule, the pest or weed control at 50 ppm in data set [1] amounted to 99%. For the same molecule, in the data set on Phakopsora pachyrhizi, the pest or weed control at 50 ppm was found to be 100%. Further, the pest or weed control at 50 ppm in data set [2] is 100%. Besides, the pest or weed control at 50 ppm in the data set on Zymoseptoria tritici came to 100%.
In turn, `CCn1c(-c2c(F)cc(F)cc2F)c(-c2cc(OC)cc(OC)c2)cc(C#N)c1=O` [Compound 69, 1,2-dihydro-5-(3,5-dimethoxyphenyl)-1-ethyl-2-oxo-6-(2,4,6-trifluorophenyl)-3-pyridinecarbonitrile] had a melting point of 185 to 187 °C. This molecule also returned a pest or weed control at 50 ppm in the data set with Alternaria solani of 99%. The pest or weed control at 50 ppm in the data set on Botrytis cinerea is 93%. Further, the pest or weed control at 50 ppm in data set [1] came out at 99%. This molecule gave a pest or weed control at 50 ppm with Phakopsora pachyrhizi of 86%. In data set [2], this molecule came in with a pest or weed control at 50 ppm of 100%. The pest or weed control at 50 ppm with Zymoseptoria tritici came to 100%.
In turn, `CCn1c(-c2c(F)cc(F)cc2F)c(-c2cc(OC)cc(OC)c2Cl)cc(C#N)c1=O` [Compound 70, 5-(2-chloro-3,5-dimethoxyphenyl)-1,2-dihydro-1-ethyl-2-oxo-6-(2,4,6-trifluorophenyl)-3-pyridinecarbonitrile] registered a melting point of 171 to 173 °C. In addition, the pest or weed control at 50 ppm in the data set on Alternaria solani worked out at 98%. In the data set on Botrytis cinerea, the pest or weed control at 50 ppm was found to be 96%. Further, the pest or weed control at 50 ppm in data set [1] came to 99%. The pest or weed control at 50 ppm with Phakopsora pachyrhizi turned out to be 100%. In addition, the pest or weed control at 50 ppm in data set [2] is 100%. Besides, the pest or weed control at 50 ppm with Zymoseptoria tritici was 100%.
Turning to `COc1cc(OC)c(Cl)c(-n2nc(Cl)c(=O)c(C)c2-c2ccc(F)cc2Cl)c1` [Compound 92, 3-chloro-6-(2-chloro-4-fluorophenyl)-1-(2-chloro-3,5-dimethoxyphenyl)-5-methyl-4(1H)-pyridazinone], the melting point was in the range of 192 to 195 °C. The molecule further gave a pest or weed control at 50 ppm with Alternaria solani of 99%. Also, in the data set with Botrytis cinerea, the pest or weed control at 50 ppm turned out to be 96%. In addition, in data set [1], the pest or weed control at 50 ppm turned out to be 99%. The molecule further showed a pest or weed control at 50 ppm in the data set with Phakopsora pachyrhizi of 100%. Besides, in data set [2], the pest or weed control at 50 ppm turned out to be 100%. In addition, the pest or weed control at 50 ppm with Zymoseptoria tritici is 100%.
On to `COc1cc(OC)c(Cl)c(-n2nc(Br)c(=O)c(C)c2-c2ccc(F)cc2Cl)c1` [Compound 94, 3-bromo-6-(2-chloro-4-fluorophenyl)-1-(2-chloro-3,5-dimethoxyphenyl)-5-methyl-4(1H)-pyridazinone], for which the melting point was in the range of 191 to 194 °C. In addition, the pest or weed control at 50 ppm in the data set on Alternaria solani stood at 100%. Moreover, the pest or weed control at 50 ppm in the data set with Botrytis cinerea is 98%. In addition, the pest or weed control at 50 ppm in data set [1] is 100%. In addition, the pest or weed control at 50 ppm in the data set with Phakopsora pachyrhizi turned out to be 100%. Besides, in data set [2], the pest or weed control at 50 ppm stood at 100%. The same molecule had a pest or weed control at 50 ppm with Zymoseptoria tritici of 100%.
`COc1cc(OC)cc(-n2nc(C)c(=O)c(C)c2-c2ccc(F)cc2Cl)c1` [Compound 97, 6-(2-chloro-4-fluorophenyl)-3,5-dimethyl-1-(3,5-dimethoxyphenyl)-4(1H)-pyridazinone] showed a melting point of 148 to 151 °C. The molecule further returned a pest or weed control at 50 ppm in the data set on Alternaria solani of 100%. In the data set with Botrytis cinerea, this molecule came in with a pest or weed control at 50 ppm of 96%. This molecule displayed a pest or weed control at 50 ppm in data set [1] of 99%. For the same molecule, the pest or weed control at 50 ppm in the data set with Phakopsora pachyrhizi amounted to 100%. The same molecule yielded a pest or weed control at 50 ppm in data set [2] of 100%. The molecule also yielded a pest or weed control at 50 ppm in the data set with Zymoseptoria tritici of 100%.
In turn, `COc1ccc(Cl)c(-n2nc(C)c(=O)c(Cl)c2-c2ccc(F)cc2)c1` [Compound 105, 5-chloro-1-(2-chloro-5-methoxyphenyl)-6-(4-fluorophenyl)-3-methyl-4(1H)-pyridazinone] gave a melting point of 207 to 210 °C. The same molecule came in with a pest or weed control at 50 ppm in the data set on Alternaria solani of 100%. The same molecule gave a pest or weed control at 50 ppm in the data set with Botrytis cinerea of 98%. In addition, the pest or weed control at 50 ppm in data set [1] turned out to be 95%. In the data set on Phakopsora pachyrhizi, this molecule came in with a pest or weed control at 50 ppm of 96%. The molecule also showed a pest or weed control at 50 ppm in data set [2] of 100%. Further, the pest or weed control at 50 ppm in the data set with Zymoseptoria tritici was 100%.
`COc1ccc(Cl)c(-c2cc(C)nc(C)c2-c2ccc(F)cc2Cl)c1` [Compound 138, 3-(2-chloro-4-fluorophenyl)-4-(2-chloro-5-methoxyphenyl)-2,6-dimethylpyridine] returned a melting point of 106 to 108 °C.
As for `CCn1c(-c2ccc(F)cc2Cl)c(-c2cc(OC)cc(OC)c2)cc(C#N)c1=O` [Compound 155], the “Test F disease control rating” value with Alternaria solani is reported as 0%. Also, the “Test E disease control rating” value in the data set with Botrytis cinerea turned out to be 92%. Moreover, the “Test C disease control rating” value in data set [1] is 0%. For the same molecule, the “Test D disease control rating” value with Phakopsora pachyrhizi worked out at 0%. Also, the “Test B disease control rating” value in data set [2] came out at 89%. Moreover, the “Test A disease control rating” value in the data set with Zymoseptoria tritici was 8%.
Regarding `COc1cc(OC)c(Cl)c(-c2cc(C#N)c(=O)n(C)c2-c2ccc(F)cc2Cl)c1` [Compound 156, 5-(2-chloro-3,5-dimethoxyphenyl)-6-(2-chloro-4-fluorophenyl)-1,2-dihydro-1-methyl-2-oxo-3-pyridinecarbonitrile], the melting point lay within 209 to 211 °C. In addition, the pest or weed control at 50 ppm in the data set on Alternaria solani came out at 91%. In the data set with Botrytis cinerea, this molecule came in with a pest or weed control at 50 ppm of 98%. The molecule also came in with a pest or weed control at 50 ppm in data set [1] of 98%. The same molecule registered a pest or weed control at 50 ppm in the data set with Phakopsora pachyrhizi of 99%. The pest or weed control at 50 ppm in data set [2] was determined as 100%. In addition, in the data set with Zymoseptoria tritici, the pest or weed control at 50 ppm was 100%.
For `COc1cc(OC)cc(-c2cc(C#N)c(=O)n(C)c2-c2ccc(F)cc2Cl)c1` [Compound 158], the “Test F disease control rating” value with Alternaria solani is 0%. The “Test E disease control rating” value with Botrytis cinerea is on record as 40%. In addition, the “Test C disease control rating” value in data set [1] amounted to 0%. Besides, in the data set with Phakopsora pachyrhizi, the “Test D disease control rating” value was 0%. The “Test B disease control rating” value in data set [2] is on record as 68%. Besides, in the data set on Zymoseptoria tritici, the “Test A disease control rating” value was 0%.
As to `CCn1c(-c2ccc(F)cc2Cl)c(-c2cc(OC)ccc2Cl)cc(C#N)c1=O` [Compound 159], the “Test F disease control rating” value in the data set on Alternaria solani is listed as 94%. The “Test E disease control rating” value in the data set with Botrytis cinerea came to 99%. The “Test C disease control rating” value in data set [1] was 27%. Further, in the data set on Phakopsora pachyrhizi, the “Test D disease control rating” value worked out at 77%. For the same molecule, the “Test B disease control rating” value in data set [2] stood at 100%. In the data set with Zymoseptoria tritici, the “Test A disease control rating” value is listed as 100%.
